Source: patent EP4745135A1 (Gluetacs Therapeutics (Shanghai) Co., Ltd., priority 2023, dated 2025)

What was measured:
[1] = test system: Human myeloid monocytic leukemia cell (MV-4-11); assay: Tumor cell proliferation inhibition (CellTiter-Meiluncell luminescent cell viability assay); conditions: MV4-11, 96 h; for inhibition at 0.01 µM: read-out: Inhibition Rate at 10 nM (%); for inhibition at 0.5 µM: read-out: Inhibition Rate at 500 nM (%)
WEE1 = target: T1, WEE1 (Homo sapiens, UniProt P30291+Q96SW2); assay: Western blot, degradation of substrate protein in hPBMCs; assay type: cell-based
T1 construct: effects of the compounds of the present disclosure on the expression of target proteins in cells; endogenous in cells; host or cells: human PBMCs (Milecell Biotechnologies)
T1 sequence (P30291 whole entry): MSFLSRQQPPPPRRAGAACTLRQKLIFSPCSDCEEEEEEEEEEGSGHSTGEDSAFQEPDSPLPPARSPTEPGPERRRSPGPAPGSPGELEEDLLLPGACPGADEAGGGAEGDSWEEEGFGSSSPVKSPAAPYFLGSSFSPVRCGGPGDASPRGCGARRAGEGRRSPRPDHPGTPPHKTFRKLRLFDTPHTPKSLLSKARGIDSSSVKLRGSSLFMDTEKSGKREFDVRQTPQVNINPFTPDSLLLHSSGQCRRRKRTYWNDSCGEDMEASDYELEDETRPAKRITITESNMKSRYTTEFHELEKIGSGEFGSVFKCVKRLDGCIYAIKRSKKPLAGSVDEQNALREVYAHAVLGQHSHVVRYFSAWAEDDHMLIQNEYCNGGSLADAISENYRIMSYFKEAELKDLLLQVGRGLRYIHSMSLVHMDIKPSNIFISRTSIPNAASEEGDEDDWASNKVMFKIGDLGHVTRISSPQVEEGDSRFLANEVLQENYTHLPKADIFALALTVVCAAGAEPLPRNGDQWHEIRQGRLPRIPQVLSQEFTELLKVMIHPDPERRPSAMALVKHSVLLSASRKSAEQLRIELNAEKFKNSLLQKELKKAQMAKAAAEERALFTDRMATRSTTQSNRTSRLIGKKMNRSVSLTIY
T1 sequence (Q96SW2 whole entry): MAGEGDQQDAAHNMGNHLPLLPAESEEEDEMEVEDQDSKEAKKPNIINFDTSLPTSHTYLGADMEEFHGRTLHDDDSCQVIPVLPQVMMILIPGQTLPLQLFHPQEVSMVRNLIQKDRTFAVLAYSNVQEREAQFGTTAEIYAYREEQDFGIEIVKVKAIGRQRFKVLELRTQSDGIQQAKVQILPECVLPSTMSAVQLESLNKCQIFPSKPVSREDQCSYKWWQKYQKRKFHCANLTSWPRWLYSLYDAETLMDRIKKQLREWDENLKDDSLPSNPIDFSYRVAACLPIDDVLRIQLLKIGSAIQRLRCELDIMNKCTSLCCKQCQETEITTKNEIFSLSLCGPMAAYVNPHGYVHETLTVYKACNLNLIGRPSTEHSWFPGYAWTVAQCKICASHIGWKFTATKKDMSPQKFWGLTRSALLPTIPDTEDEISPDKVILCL
T1 sequence (Q16531 whole entry partner): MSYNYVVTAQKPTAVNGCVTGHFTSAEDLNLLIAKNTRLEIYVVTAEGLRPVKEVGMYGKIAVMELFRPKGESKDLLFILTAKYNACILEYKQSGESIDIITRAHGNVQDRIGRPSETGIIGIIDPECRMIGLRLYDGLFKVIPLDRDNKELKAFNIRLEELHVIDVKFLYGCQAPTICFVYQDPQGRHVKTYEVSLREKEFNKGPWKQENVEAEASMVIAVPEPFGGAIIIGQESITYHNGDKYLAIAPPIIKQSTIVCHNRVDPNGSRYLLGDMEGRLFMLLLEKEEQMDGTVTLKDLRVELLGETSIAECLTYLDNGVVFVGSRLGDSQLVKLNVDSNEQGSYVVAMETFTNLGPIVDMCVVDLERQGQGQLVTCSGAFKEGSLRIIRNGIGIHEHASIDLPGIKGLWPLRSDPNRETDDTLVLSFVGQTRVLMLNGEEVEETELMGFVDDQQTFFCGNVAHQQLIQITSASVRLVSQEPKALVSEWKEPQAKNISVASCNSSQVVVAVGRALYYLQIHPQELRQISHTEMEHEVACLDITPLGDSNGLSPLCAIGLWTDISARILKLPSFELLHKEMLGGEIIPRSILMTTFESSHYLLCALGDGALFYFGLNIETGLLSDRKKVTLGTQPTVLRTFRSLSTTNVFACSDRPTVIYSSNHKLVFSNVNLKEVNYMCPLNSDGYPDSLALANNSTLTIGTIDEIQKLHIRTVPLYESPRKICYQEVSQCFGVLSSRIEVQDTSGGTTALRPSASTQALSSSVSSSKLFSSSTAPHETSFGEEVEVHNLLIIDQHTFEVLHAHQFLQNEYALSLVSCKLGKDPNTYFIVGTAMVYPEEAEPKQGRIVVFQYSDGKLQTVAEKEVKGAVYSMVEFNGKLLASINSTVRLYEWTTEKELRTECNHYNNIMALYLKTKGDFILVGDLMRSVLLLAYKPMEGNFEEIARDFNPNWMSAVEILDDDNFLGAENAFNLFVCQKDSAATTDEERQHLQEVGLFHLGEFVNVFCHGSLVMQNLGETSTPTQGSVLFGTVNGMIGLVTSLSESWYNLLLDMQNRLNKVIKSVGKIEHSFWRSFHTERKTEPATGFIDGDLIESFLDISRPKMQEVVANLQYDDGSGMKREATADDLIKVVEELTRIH

IKZF3 = target: T2, IKZF3 (Homo sapiens, UniProt Q96SW2+Q9UKT9); assay: as above; assay type: cell-based
T2 construct: effects of the compounds of the present disclosure on the expression of target proteins in cells; endogenous in cells; host or cells: human PBMCs (Milecell Biotechnologies)
T2 sequence (Q9UKT9 whole entry): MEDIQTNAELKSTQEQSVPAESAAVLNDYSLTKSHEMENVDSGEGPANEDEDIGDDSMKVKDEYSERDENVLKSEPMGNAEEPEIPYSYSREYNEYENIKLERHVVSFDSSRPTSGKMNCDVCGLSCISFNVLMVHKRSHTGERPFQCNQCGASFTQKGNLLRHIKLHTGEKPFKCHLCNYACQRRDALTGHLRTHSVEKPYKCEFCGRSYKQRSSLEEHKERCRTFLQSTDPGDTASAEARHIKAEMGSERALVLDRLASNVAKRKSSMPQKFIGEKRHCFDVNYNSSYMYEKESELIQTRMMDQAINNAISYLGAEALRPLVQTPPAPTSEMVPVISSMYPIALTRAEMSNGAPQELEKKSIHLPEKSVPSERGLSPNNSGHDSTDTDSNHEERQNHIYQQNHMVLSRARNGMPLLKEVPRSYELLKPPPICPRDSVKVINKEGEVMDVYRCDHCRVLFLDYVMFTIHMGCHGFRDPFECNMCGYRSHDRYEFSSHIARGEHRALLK
T2 sequence (Q96SW2 whole entry): as the sequence (Q96SW2 whole entry) above
T2 sequence (Q16531 whole entry partner): as the sequence (Q16531 whole entry partner) above

IKZF1 = target: T3, IKZF1 (Homo sapiens, UniProt Q13422+Q96SW2); assay: as above; assay type: cell-based
T3 construct: effects of the compounds of the present disclosure on the expression of target proteins in cells; endogenous in cells; host or cells: human PBMCs (Milecell Biotechnologies)
T3 sequence (Q13422 whole entry): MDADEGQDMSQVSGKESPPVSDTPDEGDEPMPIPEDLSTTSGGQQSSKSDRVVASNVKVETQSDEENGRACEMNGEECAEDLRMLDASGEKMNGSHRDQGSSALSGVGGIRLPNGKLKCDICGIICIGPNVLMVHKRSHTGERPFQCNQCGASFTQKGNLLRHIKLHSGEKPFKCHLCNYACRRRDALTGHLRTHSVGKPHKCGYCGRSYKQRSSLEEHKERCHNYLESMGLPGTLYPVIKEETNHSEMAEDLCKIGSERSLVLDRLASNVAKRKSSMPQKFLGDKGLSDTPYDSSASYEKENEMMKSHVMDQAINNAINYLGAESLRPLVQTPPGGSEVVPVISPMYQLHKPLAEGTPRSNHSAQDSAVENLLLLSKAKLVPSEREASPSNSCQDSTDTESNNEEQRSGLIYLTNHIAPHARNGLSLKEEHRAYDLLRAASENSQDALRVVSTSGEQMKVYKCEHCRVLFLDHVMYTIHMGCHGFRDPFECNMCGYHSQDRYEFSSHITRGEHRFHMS
T3 sequence (Q96SW2 whole entry): as the sequence (Q96SW2 whole entry) above
T3 sequence (Q16531 whole entry partner): as the sequence (Q16531 whole entry partner) above

CK1α = target: T4, CK1α (Homo sapiens, UniProt P48729+Q96SW2); assay: as above; assay type: cell-based
T4 construct: effects of the compounds of the present disclosure on the expression of target proteins in cells; endogenous in cells; host or cells: human PBMCs (Milecell Biotechnologies)
T4 sequence (P48729 whole entry): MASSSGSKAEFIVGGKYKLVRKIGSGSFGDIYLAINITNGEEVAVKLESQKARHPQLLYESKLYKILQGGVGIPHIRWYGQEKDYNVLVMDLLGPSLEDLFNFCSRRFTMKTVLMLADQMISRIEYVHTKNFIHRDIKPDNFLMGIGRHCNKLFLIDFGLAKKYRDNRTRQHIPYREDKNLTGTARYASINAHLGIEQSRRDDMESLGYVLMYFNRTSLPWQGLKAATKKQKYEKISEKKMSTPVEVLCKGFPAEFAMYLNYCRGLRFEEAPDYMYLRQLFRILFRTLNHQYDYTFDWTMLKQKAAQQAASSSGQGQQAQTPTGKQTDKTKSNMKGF
T4 sequence (Q96SW2 whole entry): as the sequence (Q96SW2 whole entry) above
T4 sequence (Q16531 whole entry partner): as the sequence (Q16531 whole entry partner) above

IKZF2 = target: T5, IKZF2 (Homo sapiens, UniProt Q96SW2+Q9UKS7); assay: as above; assay type: cell-based
T5 construct: effects of the compounds of the present disclosure on the expression of target proteins in cells; endogenous in cells; host or cells: human PBMCs (Milecell Biotechnologies)
T5 sequence (Q9UKS7 whole entry): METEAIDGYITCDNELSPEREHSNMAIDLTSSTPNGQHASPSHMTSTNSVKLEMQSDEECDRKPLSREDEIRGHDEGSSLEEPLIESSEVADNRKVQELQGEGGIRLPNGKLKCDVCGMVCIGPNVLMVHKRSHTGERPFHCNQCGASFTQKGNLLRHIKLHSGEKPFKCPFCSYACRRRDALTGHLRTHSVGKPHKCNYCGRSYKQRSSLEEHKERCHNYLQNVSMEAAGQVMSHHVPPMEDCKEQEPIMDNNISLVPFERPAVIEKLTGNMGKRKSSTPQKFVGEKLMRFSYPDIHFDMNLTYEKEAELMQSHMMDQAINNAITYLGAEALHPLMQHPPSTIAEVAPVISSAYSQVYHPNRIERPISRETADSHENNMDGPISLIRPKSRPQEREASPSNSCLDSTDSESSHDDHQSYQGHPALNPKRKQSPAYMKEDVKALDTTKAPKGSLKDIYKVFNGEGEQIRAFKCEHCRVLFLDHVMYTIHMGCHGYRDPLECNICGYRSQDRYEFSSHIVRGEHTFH
T5 sequence (Q96SW2 whole entry): as the sequence (Q96SW2 whole entry) above
T5 sequence (Q16531 whole entry partner): as the sequence (Q16531 whole entry partner) above

[2] = target: T6, human Cereblon WT GST-tagged protein (Homo sapiens, UniProt Q96SW2); assay: CRBN-binding affinity, HTRF (CEREBLON BINDING kit); conditions: for inhibition at 0.5 µM: read-out: Inhibition Rate at 0.5 µM (%); for inhibition at 2 µM: read-out: Inhibition Rate at 2 µM (%)
T6 construct: purchased CISBIO 64BDCRBNPEH
T6 sequence (Q96SW2 whole entry): as the sequence (Q96SW2 whole entry) above

GSPT1 = assay: Western blot, degradation of substrate protein in hPBMCs; assay type: cell-based, Human
[3] = test system: Human multiple myeloma cell (MM.1S); assay: Tumor cell proliferation inhibition (CellTiter-Meiluncell luminescent cell viability assay); conditions: Homo sapiens, MM1.S, 96 h; for inhibition at 0.01 µM: read-out: Inhibition Rate at 10 nM (%); for inhibition at 0.5 µM: read-out: Inhibition Rate at 500 nM (%)
[4] = Western blot, 24 hours of compound treatment, compounds tested at 50 nM and 500 nM (concentration for the table not stated)
[5] = 24 hours treatment, compounds at 50 nM and 500 nM (concentration behind the class not stated)

| SMILES | inhibition at 0.01 µM [1] [%] | inhibition at 0.5 µM [1] [%] | Wee1 substrate protein remaining % (WEE1; [4]) | IKZF3 substrate protein remaining % (IKZF3; [4]) | IKZF 1 substrate protein remaining % (IKZF1; [4]) | CK1α substrate protein remaining % (CK1α; [4]) | IKZF2 substrate protein remaining % (IKZF2; [4]) | inhibition at 0.5 µM [2] [%] | inhibition at 2 µM [2] [%] | GSPT1 substrate protein remaining % (GSPT1; [4]) | inhibition at 0.01 µM [3] [%] | inhibition at 0.5 µM [3] [%] | Wee1 substrate protein remaining % (WEE1; [5]) | IKZF3 substrate protein remaining % (IKZF3; [5]) | IKZF 1 substrate protein remaining % (IKZF1; [5]) | CK1α substrate protein remaining % (CK1α; [5]) | IKZF2 substrate protein remaining % (IKZF2; [5]) | GSPT1 substrate protein remaining % (GSPT1; [5]) |
| --- | --- | --- | --- | --- | --- | --- | --- | --- | --- | --- | --- | --- | --- | --- | --- | --- | --- | --- |
| O=C1CCC(N2Cc3cc(CN4CCC(c5ccccc5F)CC4)ccc3C2=S)C(=O)N1 (stereo not drawn) [GT-08620, 3-(5-((4-(2-fluorophenyl)piperidin-1-yl)methyl)-1-thioxoisoindolin-2-yl)piperidine-2,6-dione] | 30 to 40 | 60 to 80 | B (80%< substrate protein remaining %≤ 100%) | B (80%< substrate protein remaining %≤ 100%) | B (80%< substrate protein remaining %≤ 100%) | B (80%< substrate protein remaining %≤ 100%) | A (0% ≤ substrate protein remaining % ≤ 80%) | 53 to 60 | 80 to 100 | A (0% ≤ substrate protein remaining % ≤ 80%) | 40 to 50 | 70 to 80 | – | – | – | – | – | – |
| O=C1CCC(N2Cc3cc(CN4CCN(c5cccc(Cl)n5)CC4)ccc3C2=S)C(=O)N1 (stereo not drawn) [GT-09215, 3-(5-((4-(6-chloropyridin-2-yl)piperazin-1-yl)methyl)-1-thioxoisoindolin-2-yl)piperidine-2,6-dione] | 40 to 60 | 80 to 100 | B (80%< substrate protein remaining %≤ 100%) | B (80%< substrate protein remaining %≤ 100%) | B (80%< substrate protein remaining %≤ 100%) | B (80%< substrate protein remaining %≤ 100%) | B (80%< substrate protein remaining %≤ 100%) | 60 to 80 | 80 to 100 | A (0% ≤ substrate protein remaining % ≤ 80%) | 30 to 40 | 50 to 60 | – | – | – | – | – | – |
| O=C1CCC(N2Cc3c(CN4CCN(c5cc(Cl)ccc5Cl)CC4)cccc3C2=S)C(=O)N1 (stereo not drawn) [GT-08501, 3-(4-((4-(2,5-dichlorophenyl)piperazin-1-yl)methyl)-1-thioxoisoindolin-2-yl)piperidine-2,6-dione] | 40 to 60 | 40 to 60 | A (0% ≤ substrate protein remaining % ≤ 80%) | B (80%< substrate protein remaining %≤ 100%) | A (0% ≤ substrate protein remaining % ≤ 80%) | B (80%< substrate protein remaining %≤ 100%) | A (0% ≤ substrate protein remaining % ≤ 80%) | 30 to 40 | 53 to 60 | A (0% ≤ substrate protein remaining % ≤ 80%) | 50 to 60 | 60 to 70 | – | – | – | – | – | – |
| O=C1CCC(N2Cc3cc(CN4CCN(c5ccc(F)cc5)CC4)ccc3C2=S)C(=O)N1 (stereo not drawn) [GT-08240, 3-(5-((4-(4-fluorophenyl)piperazin-1-yl)methyl)-1-thioxoisoindolin-2-yl)piperidine-2,6-dione] | 0 to 5 | 40 to 60 | B (80%< substrate protein remaining %≤ 100%) | B (80%< substrate protein remaining %≤ 100%) | B (80%< substrate protein remaining %≤ 100%) | B (80%< substrate protein remaining %≤ 100%) | B (80%< substrate protein remaining %≤ 100%) | 53 to 60 | 80 to 100 | A (0% ≤ substrate protein remaining % ≤ 80%) | 50 to 60 | 50 to 60 | – | – | – | – | – | – |
| O=C1CCC(N2Cc3c(CN4CCC(c5ccon5)CC4)cccc3C2=S)C(=O)N1 (stereo not drawn) [GT-08817, 3-(4-((4-(isoxazol-3-yl)piperidin-1-yl)methyl)-1-thioxoisoindolin-2-yl)piperidine-2,6-dione] | 40 to 60 | 30 to 40 | A (0% ≤ substrate protein remaining % ≤ 80%) | B (80%< substrate protein remaining %≤ 100%) | B (80%< substrate protein remaining %≤ 100%) | B (80%< substrate protein remaining %≤ 100%) | B (80%< substrate protein remaining %≤ 100%) | 53 to 60 | 80 to 100 | B (80%< substrate protein remaining %≤ 100%) | 20 to 30 | 40 to 50 | – | – | – | – | – | – |
| O=C1CCC(N2Cc3cc(CN4CCCN(c5cccc(Cl)c5Cl)CC4)ccc3C2=S)C(=O)N1 (stereo not drawn) [GT-08481, 3-(5-((4-(2,3-dichlorophenyl)-1,4-diazepan-1-yl)methyl)-1-thioxoisoindolin-2-yl)piperidine-2,6-dione] | 18 to 25 | 60 to 80 | B (80%< substrate protein remaining %≤ 100%) | B (80%< substrate protein remaining %≤ 100%) | B (80%< substrate protein remaining %≤ 100%) | B (80%< substrate protein remaining %≤ 100%) | B (80%< substrate protein remaining %≤ 100%) | 60 to 80 | 80 to 100 | A (0% ≤ substrate protein remaining % ≤ 80%) | 30 to 40 | 70 to 80 | – | – | – | – | – | – |
| O=C1CCC(N2Cc3cc(CN4CCN(c5c[nH]c6ncccc56)CC4)ccc3C2=S)C(=O)N1 (stereo not drawn) [GT-09261, 3-(5-((4-(1H-pyrrolo[2,3-b]pyridin-3-yl)piperazin-1-yl)methyl)-1-thioxoisoindolin-2-yl)piperidine-2,6-dione] | 40 to 60 | 40 to 60 | – | – | – | – | – | 53 to 60 | 80 to 100 | – | 40 to 50 | 40 to 50 | B (80%< substrate protein remaining %≤ 100%) | B (80%< substrate protein remaining %≤ 100%) | B (80%< substrate protein remaining %≤ 100%) | B (80%< substrate protein remaining %≤ 100%) | B (80%< substrate protein remaining %≤ 100%) | A (0% ≤ substrate protein remaining % ≤ 80%) |
| O=C1CCC(N2Cc3cc(CN4CCN(c5ccc(Cl)cn5)CC4)ccc3C2=S)C(=O)N1 (stereo not drawn) [GT-09217, 3-(5-((4-(5-chloropyridin-2-yl)piperazin-1-yl)methyl)-1-thioxoisoindolin-2-yl)piperidine-2,6-dione] | 40 to 60 | 80 to 100 | B (80%< substrate protein remaining %≤ 100%) | B (80%< substrate protein remaining %≤ 100%) | B (80%< substrate protein remaining %≤ 100%) | B (80%< substrate protein remaining %≤ 100%) | B (80%< substrate protein remaining %≤ 100%) | 60 to 80 | 80 to 100 | A (0% ≤ substrate protein remaining % ≤ 80%) | 30 to 40 | 60 to 70 | – | – | – | – | – | – |
